Results taken from the NIST ThermoML archive (doi:10.1021/acs.jced.7b00494).
Numbers after ± are expanded uncertainties.

Conditions: 99.6 kPa, Liquid; for kinematic viscosity: Capillary tube (Ostwald / Ubbelohde) method; for mass density: Vibrating tube method

CNC(C)=O [N-methylacetamide]
Conditions	kinematic viscosity [m2/s]	mass density [kg/m3]
308.15 K	3.79e-06 ± 4.6e-08	945.85 ± 1.9
313.15 K	3.35e-06 ± 4.1e-08	941.63 ± 1.9
318.15 K	2.99e-06 ± 3.7e-08	937.44 ± 1.9
323.15 K	2.68e-06 ± 3.3e-08	933.24 ± 1.9
328.15 K	2.42e-06 ± 3e-08	929.07 ± 1.9
